We go through two compounds from paper PMC10861955 (Heliyon, 2024).

Each structure is given as a SMILES string.

This test deals with T1, Helicobacter pylori inosine 5′-monophosphate dehydrogenase (HpIMPDH) (Helicobacter pylori, UniProt P56088).
T1 sequence (P56088 1-481): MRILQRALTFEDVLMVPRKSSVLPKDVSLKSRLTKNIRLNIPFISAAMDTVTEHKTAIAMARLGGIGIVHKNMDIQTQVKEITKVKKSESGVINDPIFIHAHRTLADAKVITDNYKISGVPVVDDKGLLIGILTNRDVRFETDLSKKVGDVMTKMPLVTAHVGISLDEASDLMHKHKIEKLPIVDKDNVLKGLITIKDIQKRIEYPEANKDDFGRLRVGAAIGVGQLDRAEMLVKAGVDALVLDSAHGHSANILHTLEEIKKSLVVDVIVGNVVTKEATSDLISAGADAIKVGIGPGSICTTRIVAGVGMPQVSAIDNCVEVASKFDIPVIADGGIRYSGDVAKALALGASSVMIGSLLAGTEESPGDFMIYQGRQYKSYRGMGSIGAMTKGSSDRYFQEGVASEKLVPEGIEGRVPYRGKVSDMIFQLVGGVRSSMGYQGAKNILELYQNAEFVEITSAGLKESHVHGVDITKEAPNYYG
As to the kind of experiment: fluorescence assay of NADH formation, […] HpIMPDH. Type of test: biochemical.

As a reminder, the IC50 is the concentration needed to halve the response being measured. The low end stands for inhibition by little substance, the high end for a need for much substance. Regarding `COc1c2occc2cc2ccc(=O)oc12` [Compound 2, xanthotoxin], half-maximal inhibition (IC50) required 2.8 µM. The compound `COc1cc(OC)c2ccc(=O)oc2c1` [Compound 3, 5,7-di-methoxy-2H-chromen-2-one] displayed an IC50 of 2.4 µM.
